Measurements reported in ChEMBL document CHEMBL3045152, “Synthesis and antiviral activity of new 4-(phenylamino)/4-[(methylpyridin-2-yl)amino]-1-phenyl-1H-pyrazolo[3,4-b]pyridine-4-carboxylic acids derivatives” (Med Chem Res, 2007).

Tests used:
[1] = test system: Human alphaherpesvirus 1; assay: Antiviral activity against Human herpesvirus 1 at 50 uM by end point titration assay; type: functional
[2] = Cytotoxicity against Chlorocebus aethiops (African green monkey) Vero cells after 72 hr by MTT assay; type: cell-based; conditions: chlorocebus sabaeus
[3] = test system: Human alphaherpesvirus 1; assay: Antiviral activity against Human herpesvirus 1 infected in Vero cells after 72 hr by plaque reduction assay; type: functional, organism-based; conditions: Human alphaherpesvirus 1, Vero
[4] = Selectivity index, ratio of CC50 for african green monkey Vero cells to EC50 for Herpes simplex virus 1; type: toxicity, cell-based; conditions: read-out: Ratio CC50/EC50
[5] = test system: Mayaro virus; assay: Antiviral activity against Mayaro virus infected in Vero cells after 72 hr by plaque reduction assay; type: functional, organism-based
[6] = Selectivity index, ratio of CC50 for african green monkey Vero cells to EC50 for Vesicular stomatitis virus; type: toxicity, cell-based; conditions: read-out: Ratio CC50/EC50
[7] = test system: Vesicular stomatitis virus; assay: Antiviral activity against Vesicular stomatitis virus infected Vero cells after 72 hr by plaque reduction assay; type: functional, organism-based
[8] = Selectivity index, ratio of CC50 for african green monkey Vero cells to EC50 for Mayaro virus; type: toxicity, cell-based; conditions: read-out: Ratio CC50/EC50
[9] = test system: Human alphaherpesvirus 1; assay: Antiviral activity against Human herpesvirus 1 at 10 uM by end point titration assay; type: functional

| Structure (SMILES) | inhibition at 50 µM [1] | also measured |
| --- | --- | --- |
| CCOC(=O)c1cnc2c(cnn2-c2ccccc2)c1Nc1cc(C)ccn1 | 60% | – |
| CCOC(=O)c1cnc2c(cnn2-c2ccccc2)c1Nc1ccc(C)cn1 | 90% | – |
| CCOC(=O)c1cnc2c(cnn2-c2ccccc2)c1Nc1cccc(C)n1 | 90% | – |
| Cc1ccnc(Nc2c(C(=O)O)cnc3c2cnn3-c2ccccc2)c1 | 75% | – |
| Cc1ccc(Nc2c(C(=O)O)cnc3c2cnn3-c2ccccc2)nc1 | 60% | – |
| Cc1cccc(Nc2c(C(=O)O)cnc3c2cnn3-c2ccccc2)n1 | 21% | – |
| CCOC(=O)c1cnc2c(cnn2-c2ccccc2)c1Nc1ccc(Cl)cc1 | 92% | – |
| CCOC(=O)c1cnc2c(cnn2-c2ccccc2)c1Nc1cccc(OC)c1 | 98% | – |
| CCOC(=O)c1cnc2c(cnn2-c2ccccc2)c1Nc1ccc(OC)cc1 | 75.5% | – |
| CCOC(=O)c1cnc2c(cnn2-c2ccccc2)c1Nc1cccc(F)c1 | 0% | – |
| CCOC(=O)c1cnc2c(cnn2-c2ccccc2)c1Nc1ccccc1 | 90% | – |
| CCOC(=O)c1cnc2c(cnn2-c2ccccc2)c1Nc1ccc(C)cc1 | 69.2% | – |
| CCOC(=O)c1cnc2c(cnn2-c2ccccc2)c1Nc1cccc(Cl)c1 | 60% | – |
| CCOC(=O)c1cnc2c(cnn2-c2ccccc2)c1Nc1cccc([N+](=O)[O-])c1 | 90% | CC50 at 72 h [2]: 1000 µM; EC50 [3]: 6.8 µM; selectivity ratio [4]: 141 |
| CCOC(=O)c1cnc2c(cnn2-c2ccccc2)c1Nc1ccc([N+](=O)[O-])cc1 | 0% | – |
| CCOC(=O)c1cnc2c(cnn2-c2ccccc2)c1Nc1cccc(Br)c1 | 70% | – |

| Structure (SMILES) | inhibition at 50 µM [1] | also measured |
| --- | --- | --- |
| CCOC(=O)c1cnc2c(cnn2-c2ccccc2)c1Nc1ccc(Br)cc1 | 75% | – |
| CCOC(=O)c1cnc2c(cnn2-c2ccccc2)c1Nc1cccc(C)c1 | 90% | – |
| COc1ccc(Nc2c(C(=O)O)cnc3c2cnn3-c2ccccc2)cc1 | 80.6% | – |
| O=C(O)c1cnc2c(cnn2-c2ccccc2)c1Nc1ccc(Cl)cc1 | 68% | – |
| O=C(O)c1cnc2c(cnn2-c2ccccc2)c1Nc1ccc(Br)cc1 | 37% | – |
| O=C(O)c1cnc2c(cnn2-c2ccccc2)c1Nc1ccc([N+](=O)[O-])cc1 | 80% | – |
| COc1cccc(Nc2c(C(=O)O)cnc3c2cnn3-c2ccccc2)c1 | 75.5% | – |
| O=C(O)c1cnc2c(cnn2-c2ccccc2)c1Nc1ccccc1 | 0% | EC50 [5]: 4.8 µM; CC50 at 72 h [2]: 135 µM; selectivity ratio [6]: 54; EC50 [7]: 2.5 µM; selectivity ratio [8]: 28 |
| O=C(O)c1cnc2c(cnn2-c2ccccc2)c1Nc1cccc(Br)c1 | 84% | CC50 at 72 h [2]: 600 µM; EC50 [3]: 2.2 µM; selectivity ratio [4]: 272 |
| Cc1cccc(Nc2c(C(=O)O)cnc3c2cnn3-c2ccccc2)c1 | 38.5% | – |
| O=C(O)c1cnc2c(cnn2-c2ccccc2)c1Nc1cccc([N+](=O)[O-])c1 | 20.6% | – |
| Cc1ccc(Nc2c(C(=O)O)cnc3c2cnn3-c2ccccc2)cc1 | 58.4% | – |
| O=C(O)c1cnc2c(cnn2-c2ccccc2)c1Nc1cccc(Cl)c1 | 68% | EC50 [5]: 0.52 µM; CC50 at 72 h [2]: 37.4 µM; selectivity ratio [6]: 37; EC50 [7]: 1 µM; selectivity ratio [8]: 71 |
| O=C(O)c1cnc2c(cnn2-c2ccccc2)c1Nc1cccc(F)c1 | 68% | – |
| Nc1nc2c(ncn2COCCO)c(=O)[nH]1 [ACYCLOVIR] | – | inhibition at 10 µM [9]: 96%; CC50 at 72 h [2]: 960 µM; selectivity ratio [8]: 880; selectivity ratio [4]: 880 |
